Assay results published in patent US6440935B1, “Inhibition of eucaryotic pathogens and neoplasms and stimulation of fibroblasts and lymphocytes with lytic peptides” (priority 1987, dated 2002).
Several values for one entry are separate records, joined by “and”; a condition that tells them apart may be missing. Identical values can stand only once. Like-named read-outs stand apart in the source and are kept apart here. Residues, ends and D or L forms follow the SMILES beside them.

Assays:
[1] = Viability by trypan blue exclusion, Daudi cells; format: cell-based, human; conditions: 100 μM
Experimental: (§1) EL-4 lymphoma cells were suspended in RPMI 1640 at 5,000,000/ml with 500,000 cells per well. Various concentrations of cecropin SB-37 and Shiva 1 were added and the wells incubated at 37° C. in a 5% CO2 atmosphere for one hour. Viability was determined by microscopic observation for trypan blue exclusion.
(§2) The procedure of Example 5 was repeated with 50 and 200 μM cecropin SB-37 using SP2 mouse lymphoma cells, KG-1 human leukemia cells, Daudi human Burkitt's lymphoma cells, non-adherent normal human lymphocytes and adherent 3T3 […] fibroblasts. Viability was determined by microscopic observation for trypan blue exclusion.
(§3) This procedure was repeated with 100 μM cecropin SB-37 using non-adherent normal human lymphocytes, Daudi human Burkitt's lymphoma cells, KG-1 human leukemia cells, U937 human monocytic leukemia cells, and SP2 murine myeloma cells, and determining viability by the trypan blue exclusion method at 15, 30 and 60 minutes following addition of the peptide.

[2] = tested on: Daudi human Burkitt's lymphoma cells; assay: Viability by trypan blue exclusion, Daudi cells; format: cell-based
Experimental: as §1, §2, §3

EL-4 cells = assay: EL-4 cytotoxicity by chromium release; format: cell-based; conditions: 30 minutes, 10^6 EL-4 cells
Experimental: (§4) The EL-4 cells were then incubated for 30 minutes in the presence of various peptides at different concentrations. Cytotoxicity was taken as a percentage of chromium released (measured in the culture supernatant) relative to the chromium released by EL-4 cells lysed by detergent.
(§5) Similar chromium release data were obtained using the same procedure with a 100 μM concentration of peptide, but with EL-4 cell concentrations of 2×10^6, 10^6, and 5×10^5 cells in 0.5 ml medium.
(§6) The chromium release data was also obtained by using the supernatant from unlabeled EL-4 cells cultured for 30 minutes in the presence of 100 μM peptide as medium for […] EL-4 cultured as described above. The percent cytotoxicity calculated as described above was 20.16 for cecropin SB-37, 19.73 for *cecropin SB-37, 41.96 for Shiva 1, and 106.67 for melittin.

[3] = EL-4 cytotoxicity by chromium release; format: cell-based; conditions: for cytotoxicity at 100 µM: read-out: Percent Cytotoxicity
Experimental: as §4, §5, §6

[4] = tested on: Xanthomonas campestris pv. campestris; assay: Plant pathogen LD50 in cecropin SB-37/lysozyme; format: cell-based; conditions: incubation at 30° C.
[5] = tested on: T. cruzi intracellular amastigotes in Vero cells; assay: In vitro effect on T. cruzi intracellular amastigotes in Vero cells; format: cell-based, Trypanosoma cruzi; conditions: one hour period, relative to no peptide
Experimental: Vero cells at 10^5 cells/ml in MEM-FBS were mixed with Trypanosoma Cruzi in the trypomastigote stage at 10^5 cells/ml in the same medium at a 1:1 ratio of Vero cells to trypomastigotes. The mixture of Vero cells and trypomastigotes was cultured at 37° C. in a 5% CO2 atmosphere in microscope slide chambers. At 24 hours, cecropin SB-37 was added to the chambers, except for a set of controls, at a final concentration of 100 μM. […]

[6] = tested on: adherent 3T3 human fibroblasts; assay: Viability by trypan blue exclusion, 3T3 fibroblasts; format: cell-based
[7] = tested on: Pseudomonas syringae pv. tabaci; assay: Plant pathogen LD50 in cecropin SB-37/lysozyme; format: cell-based; conditions: incubation at 30° C.
[8] = Viability by trypan blue exclusion, U937 cells; format: cell-based, human
Experimental: as §1, §3

[9] = S. intermedius 19930 viability in lytic peptide/lysozyme; conditions: Viability (%), lysozyme at ten times
[10] = tested on: Erwinia caratovora subsp. carotova; assay: Plant pathogen LD50 in cecropin SB-37/lysozyme; format: cell-based; conditions: incubation at 30° C.
[11] = In vivo screening on mice; parameters: species or system BALB/C mice; conditions: for WBC Count: 110 mg/kg per day i.m. for 6 days, Mouse 1, 2, 3
Experimental: Nine BALB/C mice, 4 to 5 weeks of age, maintained on commercial rodent ration fed ad libidum and in general good health were each inoculated with 1.76 mg/day of cecropin SB-37 in PBS intramuscularly for 4 consecutive days. No other change was made in diet or conditions. […] At the end of the fourth day, three were sacrificed and examined. After 30 days, three were given an additional 1.76 mg of cecropin SB-37 each.
The remaining mice were all sacrificed 7 days after the last inoculation.
Following the above procedure, three BALB/C mice were given 110 mg/kg of body weight per day of cecropin SB-37 injected intramuscularly in balanced salt solution for 6 days. Ten days after the last inoculation, the mice were again injected intramuscularly with 110 mg/kg of body weight with cecropin SB-37. […] All three mice were sacrificed 7 days after the final inoculation and tissues were examined.

[12] = EL-4 cell viability by trypan blue exclusion; format: cell-based; conditions: one hour, 95% at 0 μM
Experimental: as §1

SP2 mouse lymphoma cells = assay: Viability by trypan blue exclusion, SP2 cells; format: cell-based
Experimental: as §1, §2, §3

[13] = Viability by trypan blue exclusion, SP2 cells; format: cell-based, mouse; conditions: 100 μM
Experimental: as §1, §2, §3

[14] = tested on: KG-1 human leukemia cells; assay: Viability by trypan blue exclusion, KG-1 cells; format: cell-based
Experimental: as §1, §2, §3

[15] = Viability by trypan blue exclusion, KG-1 cells; format: cell-based, human; conditions: 100 μM
Experimental: as §1, §2, §3

Work on `CC[C@H](C)[C@H](NC(=O)CNC(=O)[C@H](CC(N)=O)NC(=O)[C@H](CCCNC(=N)N)NC(=O)[C@@H](NC(=O)[C@H](CC(N)=O)NC(=O)[C@H](CCCNC(=N)N)NC(=O)CNC(=O)[C@H](CCSC)NC(=O)[C@H](CCCCN)NC(=O)[C@H](CCC(=O)O)NC(=O)[C@@H](NC(=O)[C@H](CCCCN)NC(=O)[C@H](CCCCN)NC(=O)[C@H](Cc1ccccc1)NC(=O)[C@@H](NC(=O)[C@H](CCCCN)NC(=O)[C@H](Cc1c[nH]c2ccccc12)NC(=O)[C@H](CCCCN)NC(=O)[C@@H]1CCCN1C(=O)[C@@H](N)CCSC)C(C)C)[C@@H](C)CC)[C@@H](C)CC)C(=O)N[C@H](C(=O)N[C@@H](CCCCN)C(=O)N[C@@H](C)C(=O)NCC(=O)N1CCC[C@H]1C(=O)N[C@@H](C)C(=O)N[C@H](C(=O)N[C@@H](C)C(=O)N[C@H](C(=O)N[C@@H](CC(C)C)C(=O)NCC(=O)N[C@@H](CCC(=O)O)C(=O)N[C@@H](C)C(=O)N[C@@H](CCCCN)C(=O)N[C@@H](C)C(=O)N[C@@H](CC(C)C)C(=O)NCC(N)=O)C(C)C)[C@@H](C)CC)C(C)C` [Cecropin SB-37] (H-MPKWKVFKKIEKMGRNIRNGIVKAGPAIAVLGEAKALG-NH2) yielded a viability at 100 µM ([1]; 15 min.) of 70%, a viability at 100 µM ([1]; 30 min.) of 70% and a viability at 100 µM ([1]; 60 min.) of 65%. The “Survival (percent)” value ([2]; 50 μM) was 85%, the “Survival (percent)” value ([2]; 100 μM) was 0% and the “Percent Cytotoxicity (chromium release vs detergent-lysed cells)” value (“Percent Cytotoxicity” for short) (EL-4 cells; 10 μM) was 0.0%. The “Percent Cytotoxicity” value (EL-4 cells; 25 μM) was 4.49%, the “Percent Cytotoxicity” value (EL-4 cells; 50 μM) was 6.63% and the “Percent Cytotoxicity” value (EL-4 cells; 100 μM) was 36.42%. For the same compound, the cytotoxicity at 100 µM ([3]; 2 × 10^6 cells per 0.5 ml) was 93.8%, the cytotoxicity at 100 µM ([3]; 5 × 10^5 cells per 0.5 ml) was 99.6% and the cytotoxicity at 100 µM ([3]; 10^6 cells per 0.5 ml) was 89.2%. The cytotoxicity ([3]; supernatant from unlabeled EL-4 cells cultured 30 minutes with 100 μM peptide used as medium for labeled EL-4, read-out: percent cytotoxicity) was 20.2%, the LD50 [4] was 0.57 µM and the “LD50 (concentration for 50% reduction in number of infected Vero cells)” value [5] was “about 90 μM”. For the same compound, the “Survival (percent)” value ([6]; 50 μM) was 80%, the “Survival (percent)” value ([6]; 100 μM) was 80% and the LD50 [7] was 5.20 µM. For the same compound, the viability at 100 µM ([8]; 15 min.) was 35%, the viability at 100 µM ([8]; 30 min.) was 25% and the viability at 100 µM ([8]; 60 min.) was 15%. It also gave an LD50 (Pseudomonas solanacearum) of 64.0 µM, a viability at 0.01 µM ([9]; peptide concentration 0.01 μM) of 100% and a viability at 0.1 µM ([9]; peptide concentration 0.1 μM) of 94.7%. It also gave a viability at 0.5 µM ([9]; peptide concentration 0.5 μM) of 69.4%, a viability at 1 µM ([9]; peptide concentration 1.0 μM) of 42.5% and a viability at 5 µM ([9]; peptide concentration 5.0 μM) of 36.1%. It also gave a viability ([9]; peptide concentration 10. μM) of 5.6%, a viability ([9]; peptide concentration 50. μM) of 0% and an LD50 [10] of 1.48 µM. The adverse reactions ([11]; 1.76 mg/day intramuscularly, 4 consecutive days, observed twice daily) was “no adverse reactions were noted”, the “antibody to cecropin SB-37” value ([11]; 1.76 mg/day regimen) was “None of these mice produced detectable levels of antibody” and the “examination of organs and tissues” value ([11]; 1.76 mg/day regimen, sacrificed 7 days after the last inoculation) was “no gross pathological changes were present”. The “WBC Count” value ([11]; Day 1) was 13 10^3/ml and 9 10^3/ml, the “WBC Count” value ([11]; Day 3) was 14 10^3/ml and 9 10^3/ml and 10 10^3/ml and the “WBC Count” value ([11]; Day 5) was 15 10^3/ml and 19 10^3/ml. For the same compound, the “WBC Count” value ([11]; Day 8) was 21 10^3/ml, the “WBC Count” value ([11]; Day 11) was 23 10^3/ml and 20 10^3/ml and the adverse effects ([11]; 110 mg/kg per day intramuscularly for 6 days, again ten days later) was “no adverse effects”. The “cecropin SB-37 antibodies” value ([11]; 110 mg/kg regimen) was “No cecropin SB-37 antibodies were detected”, the examination of tissues ([11]; 110 mg/kg regimen, sacrificed 7 days after the final inoculation) was “enlarged spleens but were otherwise unremarkable” and the adverse reactions ([11]; additional 1.76 mg after 30 days) was “No adverse reactions were noted”. The viability ([12]; 10 μM) was 90%, the viability ([12]; 25 μM) was 90% and the viability ([12]; 50 μM) was 75%. The viability ([12]; 100 μM) was 20%, the “Survival (percent)” value (SP2 mouse lymphoma cells; 50 μM) was 20% and the “Survival (percent)” value (SP2 mouse lymphoma cells; 100 μM) was 5%. For the same compound, the viability at 100 µM ([13]; 15 min.) was 100%, the viability at 100 µM ([13]; 30 min.) was 40% and the viability at 100 µM ([13]; 60 min.) was 10%. For the same compound, the “Survival (percent)” value ([14]; 50 μM) was 95%, the “Survival (percent)” value ([14]; 100 μM) was 0% and the viability at 100 µM ([15]; 15 min.) was 50%. The viability at 100 µM ([15]; 30 min.) was 75% and the viability at 100 µM ([15]; 60 min.) was 50%.
